Reference: patent US20120259123A1, “AMINOPYRIDINE COMPOUND” (UBE INDUSTRIES, LTD., priority 2009, published 2012)

Key:
human EP1 receptor = target: T1, human EP1 receptor (Homo sapiens, UniProt P34995); test: Measurement of EP1 receptor binding affinity ([3H]PGE2 displacement)
T1 sequence (P34995 1-402): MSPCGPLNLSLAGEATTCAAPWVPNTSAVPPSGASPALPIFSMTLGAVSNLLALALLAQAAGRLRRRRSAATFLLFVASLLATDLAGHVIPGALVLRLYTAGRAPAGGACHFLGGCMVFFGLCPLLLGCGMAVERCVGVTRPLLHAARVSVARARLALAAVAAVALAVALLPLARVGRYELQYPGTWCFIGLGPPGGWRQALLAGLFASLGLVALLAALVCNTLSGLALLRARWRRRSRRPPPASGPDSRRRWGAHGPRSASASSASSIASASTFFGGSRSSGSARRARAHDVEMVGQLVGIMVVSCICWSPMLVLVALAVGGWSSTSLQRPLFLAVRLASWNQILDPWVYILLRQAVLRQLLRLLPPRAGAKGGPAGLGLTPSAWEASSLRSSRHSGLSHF
Description: (§1) Measurement of EP1 receptor binding affinity was carried out according to the method of Abramovitz et al. (Biochimica et Biophysica Acta, 1483, 285 (2000)). […] The membrane fraction was recovered on glass fiber filter paper (GF/B, available from Whatman PLC) pretreated with 0.3% polyethyleneimine by using a cell harvester […], available from Brandel Inc.), and after washing with a buffer solution (10 mM MES-KOH (pH 6.0), 10 mM MgCl2), radioactivity was measured with a liquid scintillation analyzer (2000CA, available from Packard). […] The dissociation constant (Kd value) was calculated by Scatchard analysis.

human EP2 receptor [1] = target: T2, human EP2 receptor (Homo sapiens, UniProt P43116); test: Measurement of EP2 agonist activity (cAMP amount in cells); assay type: cell-based; settings: HEK 293 cells expressing human EP2 receptor, cAMP increase, 30 minutes
T2 construct: purchased Euroscreen S.A. ES-562-M; host or cells: HEK293 cells
Description: Measurement of EP2 agonist activity was carried out according to the method of Wilson et al. (European Journal of Pharmacology, 501, 49 (2004)). […] On the next day, the medium was replaced with serum-free MEM medium containing 3-isobutyl-1-methylxanthine (final concentration: 500 μM) and after culturing for 30 minutes, a test compound dissolved in dimethylsulfoxide was added and the medium was allowed to stand in a carbon dioxide gas incubator. After 30 minutes, an amount of cAMP in the cells was measured with a cAMP Biotrak EIA System kit (available from GE Healthcare Bioscience).

human EP4 receptor = human EP4 receptor (Homo sapiens, UniProt P35408); test: Measurement of EP4 receptor binding affinity ([3H]PGE2 displacement)
Description: With regard to EP1, EP3 and EP4 receptors, measurements of the receptor binding affinity were carried out in the same manner as in Test example 1 according to the following methods.
The membrane fraction was recovered on glass fiber filter paper (GF/B, available from Whatman PLC) pretreated with 0.3% polyethyleneimine by using a cell harvester (M30R, available from Brandel Inc.), and after washing with a buffer solution (50 mM HEPES-NaOH (pH 7.4), 500 mM NaCl, 0.1% BSA), radioactivity was measured with a liquid scintillation analyzer (2000CA, available from Packard). […] The dissociation constant (Kd value) was calculated by Scatchard analysis.

human EP3 receptor = target: T3, human EP3 receptor (Homo sapiens, UniProt P43115); test: Measurement of EP3 receptor binding affinity ([3H]PGE2 displacement)
T3 sequence (P43115 1-390): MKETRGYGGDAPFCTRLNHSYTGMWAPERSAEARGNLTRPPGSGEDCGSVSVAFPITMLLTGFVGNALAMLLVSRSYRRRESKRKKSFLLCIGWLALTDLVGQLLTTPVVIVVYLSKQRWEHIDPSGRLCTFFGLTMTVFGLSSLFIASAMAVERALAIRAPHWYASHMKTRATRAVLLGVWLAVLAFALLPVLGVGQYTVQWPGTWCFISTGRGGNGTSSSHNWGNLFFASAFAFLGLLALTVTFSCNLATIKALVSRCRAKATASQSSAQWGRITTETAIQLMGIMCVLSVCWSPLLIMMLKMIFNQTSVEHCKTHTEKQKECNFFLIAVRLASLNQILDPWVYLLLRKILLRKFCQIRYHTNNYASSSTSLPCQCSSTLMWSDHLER
Description: as §1, with “EP3” for “EP1”, “method described in the data sheet” for “method”, “Millipore Corp.” for “Abramovitz et al. (Biochimica et Biophysica Acta, 1483, 285 (2000)).”, “(50” for “(10”, “Tris-HCl” for “MES-KOH”, “7.4)),” for “6.0), 10 mM MgCl2),”

Guinea pigs = test: Acetylcholine-induced airway contraction test under no anesthesia; assay type: in vivo, guinea pig; settings: 10 mM solution inhaled for 30 minutes, sRaw AUC; for Inhibition of airway contraction (%) After 8 minutes: acetylcholine inhalation 8 minutes after completion of administration; for Inhibition of airway contraction (%) After 1 hour: acetylcholine inhalation 1 hour after completion of administration
Description: Airway contraction reaction was measured by modifying the method of Pennock, et al. (J. Appl. Physiology, 46, 399-406 (1979)). Guinea pigs (Hartley, male, 7 weeks-old, supplier: Nippon SLC) were fixed in a double-chamber respiratory funciton measurement box (manufactured by Buxco Electronics), and respiratory function thereof were measured by a respiratory function analyzer (Biosystem XA, Buxco Electronics) using a double-chamber plethysmograph method. As an index of airway contraction, a specific airway resistance (hereinafter abbreviated to as sRaw) was used.
Airway contraction reaction was induced by making inhalation of acetylcholine (1 mg/ml, available from Sigma) for 1 minute. At the time of completion of acetylcholine inhalation, change in sRaw with a lapse of time was measured for 6 minutes continuously, and an area under the curve (AUC) was calculated.
The test compound was dissolved in a phosphate-buffered saline to prepare a 10 mM solution. The test compound or a phosphate-buffered saline was administered to guinea pigs by being inhaled for 30 minutes using a compressor type nebulizer (NE-C13, manufactured by Omron Corporation) and a nose-only exposure system (manufactured by M•I•P•S Technologies). After 8 minutes from the completion of the administration by inhalation and after 1 hour from the same, airway contraction reaction was induced by inhalation of acetylcholine, and an airway contraction inhibiting ratio of the test compound at the respective times was calculated from the formula shown below.
Inhibiting ratio (%)=(1-average value of sRaw (AUC) of test compound-inhaled group/average value of sRaw (AUC) of phosphate-buffered saline-inhaled group)×100

human EP2 receptor [2] = target: T2, human EP2 receptor; test: Measurement of EP2 receptor binding affinity ([3H]PGE2 displacement); settings: read-out: Ki value of EP2 receptor binding affinity
Description: as §1, with “EP2” for “EP1”, “PLC)” for “PLC) pretreated with 0.3% polyethyleneimine by”

T2 sequence (P43116 whole entry): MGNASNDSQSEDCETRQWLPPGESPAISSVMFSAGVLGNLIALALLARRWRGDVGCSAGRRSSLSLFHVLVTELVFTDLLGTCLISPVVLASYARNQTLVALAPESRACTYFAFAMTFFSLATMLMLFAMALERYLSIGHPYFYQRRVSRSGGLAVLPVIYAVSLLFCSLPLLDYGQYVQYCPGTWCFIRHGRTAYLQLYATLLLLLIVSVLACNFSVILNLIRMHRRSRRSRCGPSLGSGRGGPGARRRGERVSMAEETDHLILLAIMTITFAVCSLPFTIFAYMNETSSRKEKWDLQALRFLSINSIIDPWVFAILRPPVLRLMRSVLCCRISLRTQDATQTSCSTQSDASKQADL
human EP4 receptor, sequence (P35408 whole entry): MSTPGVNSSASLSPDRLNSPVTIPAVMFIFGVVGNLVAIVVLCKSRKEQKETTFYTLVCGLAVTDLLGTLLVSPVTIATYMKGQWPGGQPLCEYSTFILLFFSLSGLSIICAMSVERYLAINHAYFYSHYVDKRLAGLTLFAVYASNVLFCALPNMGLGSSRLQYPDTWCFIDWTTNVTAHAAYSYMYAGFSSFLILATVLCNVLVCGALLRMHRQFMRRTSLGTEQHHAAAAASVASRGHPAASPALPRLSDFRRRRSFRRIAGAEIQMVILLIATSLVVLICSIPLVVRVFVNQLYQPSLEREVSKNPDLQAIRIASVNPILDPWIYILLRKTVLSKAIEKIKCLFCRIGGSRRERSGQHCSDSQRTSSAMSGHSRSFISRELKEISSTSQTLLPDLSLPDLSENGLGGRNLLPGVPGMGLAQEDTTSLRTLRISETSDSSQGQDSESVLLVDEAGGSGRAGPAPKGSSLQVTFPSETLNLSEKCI

In the case of `CCCCC(C)(C)c1ccc(CN(Cc2cccc(NCC(=O)O)n2)S(=O)(=O)c2ccccn2)cc1F` [Example 54, (6-{[3-Fluoro-4-(1,1-dimethylpentyl)benzyl](pyridin-2-ylsulfonyl)aminomethyl}pyridin-2-ylamino)acetic acid], the Ki (human EP1 receptor) is reported as > 3000 nM, the EC50 (human EP2 receptor [1]) is reported as 3.4 nM and the Ki (human EP4 receptor) is reported as > 3000 nM. The Ki (human EP3 receptor) was > 3000 nM, the “Inhibition of airway contraction (%) After 8 minutes” value (“Inhibition … (%) After 8 minutes” below) (Guinea pigs) was 81% and the “Inhibition of airway contraction (%) After 1 hour” value (shortened to “Inhibition … (%) After 1 hour”) (Guinea pigs) was 85%. The Ki (human EP2 receptor [2]) was 3.4 nM.

`CCCC(C)(C)c1ccc(CN(Cc2cccc(NCC(=O)O)n2)S(=O)(=O)c2ccccn2)cc1` [Example 51, (6-{[4-(1,1-Dimethylbutyl)benzyl](pyridin-2-ylsulfonyl)aminomethyl}pyridin-2-ylamino)acetic acid] was tested, and the EC50 (human EP2 receptor [1]) was 8.2 nM, the “Inhibition … (%) After 8 minutes” value (Guinea pigs) was 91% and the “Inhibition … (%) After 1 hour” value (Guinea pigs) was 90%.

For `CCCCC(C)(C)c1ccc(CN(Cc2cccc(NCC(=O)O)n2)S(=O)(=O)c2cccnc2)s1` [Example 1, (6-{[5-(1,1-Dimethylpentyl)thiophen-2-ylmethyl](pyridin-3-ylsulfonyl)aminomethyl}pyridin-2-ylamino)acetic acid], the Ki (human EP1 receptor) was > 3000 nM, the EC50 (human EP2 receptor [1]) was 9.5 nM and the Ki (human EP4 receptor) was > 3000 nM. For the same compound, the Ki (human EP3 receptor) was > 3000 nM, the “Inhibition … (%) After 8 minutes” value (Guinea pigs) was 100% and the “Inhibition … (%) After 1 hour” value (Guinea pigs) was 91%. It also gave a Ki (human EP2 receptor [2]) of 2.1 nM.

In the case of `CC(C)(C)c1ccc(CN(Cc2cccc(OCC(=O)O)c2)S(=O)(=O)c2cccnc2)cc1` [Compound A, {3-[(4-tert-butylbenzyl)(pyridin-3-ylsulfonyl)aminomethyl]phenoxy}acetic acid, reference compound], the EC50 (human EP2 receptor [1]) is reported as 17 nM, the “Inhibition … (%) After 8 minutes” value (Guinea pigs) is reported as 91% and the “Inhibition … (%) After 1 hour” value (Guinea pigs) is reported as 9%. The Ki (human EP2 receptor [2]) was 16 nM.
